Test results taken from US5708005A, “Quinolines, their production and use” (priority 1995, dated 1998).

Legend:
[1] = target: melatonin receptor; test: Action of inhibiting 2-[^125 I]iodomelatonin binding (forebrain membrane sample); set-up: species or system 7-days-old chicken (white leghorn); settings: 80 pM 2-[^125 I]iodomelatonin, chicken forebrain membranes, 90 minutes at 25° C., pH 7.7; non-specific binding with 10 μM melatonin; log-probit analysis; read-out: IC50 (50% inhibiting concentration), inhibition of 2-[^125 I]iodomelatonin binding
Procedure: Action of inhibiting 2-[^125 I]iodomelatonin binding
The forebrains of 7-days-old chicken (white leghorn) were homogenized with ice-cold assay buffer (50 mM Tris-HCl, pH 7.7 at 25° C.) and centrifuged at 44,000×g for 10 minutes at 4° C. The pellet was washed once with the same buffer. For the assay, the frozen tissue pellet was thawed and homogenized with the assay buffer to make a protein concentration of 0.3-0.4 mg/ml. In this way, the membrane sample was prepared. The membrane sample was incubated with a test compound and a ligand (80 pM 2-[^125 I]iodomelatonin, about 100,000 dpm) in a total volume of 0.5 ml for 90 minutes at 25° C. The reaction was terminated by adding 3 ml of ice-cold assay buffer immediately followed by vacuum filtration on Whatman GF/B which was further washed twice with 3 ml of ice-cold assay buffer. The radioactivity on the filter was determined by means of γ-counter. […] The 50% inhibiting concentration (IC50) was determined by the log-probit analysis.

[2] = test system: central nervous system; settings: administered peripherally; Bioorganic & Medicinal Chemistry Letters, Vol. 4, p. 1485 (1994); cited from earlier work
[3] = test system: metabolic enzymes; settings: Rinsho Kensa, Vol. 38, No. 11 (1994); cited from earlier work

Row | IC50 [1] [nM] | SMILES | activity on central nervous system [2] | metabolism by metabolic enzymes in a living body [3]
1 | 8.4 | COc1ccc2nc(Cl)cc(CCNC(C)=O)c2c1 [Working Example 1, N-[2-(2-chloro-6-methoxyquinolin-4-yl)ethyl]acetamide] | – | –
2 | 8.9 | COc1ccc2nc(Cl)cc(CCNC(=O)C(F)(F)F)c2c1 [compound 3] | – | –
3 | – | COc1ccc2[nH]cc(CCNC(C)=O)c2c1 [melatonin, N-acetyl-5-methoxytryptamine] | inactive | readily metabolized
